Reference: US20250382344A1, “Soluble GLP1/GIP/NPY2 Receptor Triple Agonists” (Boehringer Ingelheim International GmH, priority 2024, published 2025)
pEC50: −log10 of the molar value. Like-named read-outs stand apart in the source and are kept apart here. *1 amine or outer side, *2 acyl side, *3 side chain or, on linkers, in order; H or OH if unused. Where a SMILES comes first, the peptide text is derived from it. Side-chain parts run from the residue outwards. [ ]: non-standard residue; d: D form. The star is where a group is joined. C18 diacid = O=C(O)CCCCCCCCCCCCCCCCC(=O)*; γGlu = O=C(O)[C@H](CCC(=O)[*:2])N[*:1]; Aib = CC(C)(N)C(=O)O

Legend:
hGIPR = target: T1, hGIPR (Homo sapiens, UniProt P48546); assay: hGIPR CreLuc assay in 0.5% and 100% plasma (CHO CRE-luciferase reporter cells); assay type: cell-based
T1 construct: expressed in transfected cells; host or cells: CHO CRE-luciferase reporter cells
T1 sequence (P48546 22-466): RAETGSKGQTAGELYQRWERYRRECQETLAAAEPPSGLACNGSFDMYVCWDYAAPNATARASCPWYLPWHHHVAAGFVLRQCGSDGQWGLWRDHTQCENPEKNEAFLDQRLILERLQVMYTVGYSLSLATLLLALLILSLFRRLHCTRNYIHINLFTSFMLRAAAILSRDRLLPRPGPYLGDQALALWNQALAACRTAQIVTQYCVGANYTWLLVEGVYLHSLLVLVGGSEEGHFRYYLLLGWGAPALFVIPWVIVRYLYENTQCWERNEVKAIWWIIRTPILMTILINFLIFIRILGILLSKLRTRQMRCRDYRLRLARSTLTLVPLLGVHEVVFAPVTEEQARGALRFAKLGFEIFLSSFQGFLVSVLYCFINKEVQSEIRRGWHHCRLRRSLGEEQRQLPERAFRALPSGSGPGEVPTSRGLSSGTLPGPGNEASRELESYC

[1] = Solubility in 0.1 M phosphate buffer at pH 7; assay type: physicochemical; conditions: 0.1 M phosphate buffer at pH 7, 10 mg/mL final peptide concentration, shaking 2 hours at room temperature, peptides as TFA-salts; measured sample pH 6.5-7.0
hGLP1R = target: T2, hGLP1R (Homo sapiens, UniProt P43220); assay: hGLP1R CreLuc assay in 0.5% and 100% plasma (HEK-293 CRE-luciferase reporter cells); assay type: cell-based; conditions: HEK-293 reporter cells
T2 construct: expressed in transfected cells; host or cells: HEK-293 CRE-luciferase reporter cells
T2 sequence (P43220 24-463): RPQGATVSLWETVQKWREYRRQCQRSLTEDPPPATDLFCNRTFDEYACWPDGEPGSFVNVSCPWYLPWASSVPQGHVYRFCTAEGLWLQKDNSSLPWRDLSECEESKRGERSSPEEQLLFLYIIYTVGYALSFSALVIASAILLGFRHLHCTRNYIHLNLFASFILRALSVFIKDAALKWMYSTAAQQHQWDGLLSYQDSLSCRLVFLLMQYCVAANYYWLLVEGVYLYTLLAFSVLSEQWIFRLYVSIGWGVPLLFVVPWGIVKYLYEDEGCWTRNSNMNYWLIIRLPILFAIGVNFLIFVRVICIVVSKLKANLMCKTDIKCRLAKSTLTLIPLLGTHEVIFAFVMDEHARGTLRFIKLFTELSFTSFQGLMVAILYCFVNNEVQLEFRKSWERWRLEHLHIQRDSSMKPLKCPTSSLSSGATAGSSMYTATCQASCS

[2] = 0.5% human plasma, read-out: hGIPR 0.5% hP
[3] = 100% human plasma, read-out: hGIPR 100% hP
[4] = 0.5% human plasma, read-out: hGLP1R 0.5% hP
[5] = 100% human plasma, read-out: hGLP1R 100% hP

Row | SMILES | pEC50 (hGIPR; [2]) | pEC50 (hGIPR; [3]) | solubility at 2 h [1] [µg/mL] | pEC50 (hGLP1R; [4]) | pEC50 (hGLP1R; [5])
1 | CC[C@H](C)[C@H](NC(=O)[C@H](CC(C)C)NC(=O)[C@H](Cc1c[nH]cn1)NC(=O)[C@H](CCCNC(=N)N)NC(=O)[C@@H](NC(=O)[C@H](Cc1ccccc1)NC(=O)[C@H](C)NC(=O)C(C)(C)NC(=O)[C@H](CCC(N)=O)NC(=O)[C@H](C)NC(=O)[C@H](CCC(N)=O)NC(=O)[C@H](CCCCN)NC(=O)[C@H](CCC(=O)O)NC(=O)[C@H](CC(C)C)NC(=O)C(C)(C)NC(=O)[C@@H](NC(=O)[C@H](CO)NC(=O)[C@H](Cc1ccc(O)cc1)NC(=O)[C@H](CC(=O)O)NC(=O)[C@H](CO)NC(=O)[C@@H](NC(=O)[C@H](Cc1ccccc1)NC(=O)[C@@H](NC(=O)CNC(=O)[C@H](CCC(=O)O)NC(=O)C(C)(C)NC(=O)[C@@H](N)Cc1ccc(O)cc1)[C@@H](C)O)[C@@H](C)O)[C@@H](C)CC)C(C)C)C(=O)N[C@@H](CC(N)=O)C(=O)N[C@@H](CCCCNC(=O)[C@@H](N)CCCCNC(=O)CC[C@H](NC(=O)CC[C@H](NC(=O)CC[C@H](NC(=O)CC[C@H](NC(=O)CC[C@H](NC(=O)CC[C@H](NC(=O)CCCCCCCCCCCCCCCCC(=O)O)C(=O)O)C(=O)O)C(=O)O)C(=O)O)C(=O)O)C(=O)O)C(=O)N[C@@H](CC(C)C)C(=O)N[C@H](C(=O)N[C@@H](CCCNC(=N)N)C(=O)N[C@@H](CCC(N)=O)C(=O)N[C@@H](CCCNC(=N)N)C(=O)N[C@@H](Cc1ccc(O)cc1)C(N)=O)[C@@H](C)O [Compound 127, Y-Aib-E-G-T-F-T-S-D-Y-S-I-Aib-L-E-K-Q-A-Q-Aib-A-F-V-R-H-L-I-N-K(1,3)-L-T-R-Q-R-Y-NH2.C18DA-gGlu-gGlu-gGlu-gGlu-gGlu-gGlu-eLys(1,2)] | 9.40 | – | 4500 | – | 8.40
2 | CC[C@H](C)[C@H](NC(=O)[C@H](CC(C)C)NC(=O)[C@H](Cc1c[nH]cn1)NC(=O)[C@H](CCCNC(=N)N)NC(=O)[C@@H](NC(=O)[C@H](Cc1ccccc1)NC(=O)[C@H](CCC(=O)O)NC(=O)C(C)(C)NC(=O)[C@H](CCC(N)=O)NC(=O)[C@H](C)NC(=O)[C@H](CCC(N)=O)NC(=O)[C@H](CCC(=O)O)NC(=O)[C@H](CCC(=O)O)NC(=O)[C@H](CC(C)C)NC(=O)C(C)(C)NC(=O)[C@@H](NC(=O)[C@H](CO)NC(=O)[C@H](Cc1ccc(O)cc1)NC(=O)[C@H](CC(=O)O)NC(=O)[C@H](CO)NC(=O)[C@@H](NC(=O)[C@H](Cc1ccccc1)NC(=O)[C@@H](NC(=O)CNC(=O)[C@H](CCC(=O)O)NC(=O)C(C)(C)NC(=O)[C@@H](N)Cc1ccc(O)cc1)[C@@H](C)O)[C@@H](C)O)[C@@H](C)CC)C(C)C)C(=O)N[C@@H](CC(N)=O)C(=O)N[C@@H](CCCCNC(=O)CC[C@H](NC(=O)CC[C@H](NC(=O)CC[C@H](NC(=O)CC[C@H](NC(=O)CCCCCCCCCCCCCCCCC(=O)O)C(=O)O)C(=O)O)C(=O)O)C(=O)O)C(=O)NC(C)(C)C(=O)N[C@H](C(=O)N[C@@H](CCCNC(=N)N)C(=O)N[C@@H](CCC(N)=O)C(=O)N[C@@H](CCCNC(=N)N)C(=O)N[C@@H](Cc1ccc(O)cc1)C(N)=O)[C@@H](C)O [Compound 129, Y-Aib-E-G-T-F-T-S-D-Y-S-I-Aib-L-E-E-Q-A-Q-Aib-E-F-V-R-H-L-I-N-K(1,3)-Aib-T-R-Q-R-Y-NH2.C18DA-gGlu-gGlu-gGlu-gGlu(1,2)] (H-Y[Aib]EGTFTSDYSI[Aib]LEEQAQ[Aib]EFVRHLINK([γGlu-γGlu-γGlu-γGlu-C18 diacid])[Aib]TRQRY-NH2) | 9.40 | 8.15 | 5100 | 9.05 | 8.55

Stronger by pEC50 (hGIPR; [2]), values ahead:

Row | pEC50 (hGIPR; [2]) | pEC50 (hGIPR; [3]) | solubility at 2 h [1] [µg/mL] | pEC50 (hGLP1R; [4]) | pEC50 (hGLP1R; [5]) | SMILES
3 | 9.52 | 8.47 | 4200 | 8.70 | – | CC[C@H](C)[C@H](NC(=O)[C@H](CC(C)C)NC(=O)[C@H](Cc1c[nH]cn1)NC(=O)[C@H](CCCNC(=N)N)NC(=O)[C@@H](NC(=O)[C@H](Cc1ccccc1)NC(=O)[C@H](C)NC(=O)C(C)(C)NC(=O)[C@H](CCC(N)=O)NC(=O)[C@H](C)NC(=O)[C@H](CCC(N)=O)NC(=O)[C@H](CCCCN)NC(=O)[C@H](CCC(=O)O)NC(=O)[C@H](CC(C)C)NC(=O)C(C)(C)NC(=O)[C@@H](NC(=O)[C@H](CO)NC(=O)[C@H](Cc1ccc(O)cc1)NC(=O)[C@H](CC(=O)O)NC(=O)[C@H](CO)NC(=O)[C@@H](NC(=O)[C@H](Cc1ccccc1)NC(=O)[C@@H](NC(=O)CNC(=O)[C@H](CCC(=O)O)NC(=O)C(C)(C)NC(=O)[C@@H](N)Cc1ccc(O)cc1)[C@@H](C)O)[C@@H](C)O)[C@@H](C)CC)C(C)C)C(=O)N[C@@H](CC(N)=O)C(=O)N[C@@H](CCCCNC(=O)[C@@H](N)CCCCNC(=O)CC[C@H](NC(=O)CC[C@H](NC(=O)CC[C@H](NC(=O)CC[C@H](NC(=O)CC[C@H](NC(=O)CC[C@H](NC(=O)CCCCCCCCCCCCCCCCC(=O)O)C(=O)O)C(=O)O)C(=O)O)C(=O)O)C(=O)O)C(=O)O)C(=O)NC(C)(C)C(=O)N[C@H](C(=O)N[C@@H](CCCNC(=N)N)C(=O)N[C@@H](CCC(N)=O)C(=O)N[C@@H](CCCNC(=N)N)C(=O)N(C)[C@@H](Cc1ccc(O)cc1)C(N)=O)[C@@H](C)O [Compound 116, Y-Aib-E-G-T-F-T-S-D-Y-S-I-Aib-L-E-K-Q-A-Q-Aib-A-F-V-R-H-L-I-N-K(1,3)-Aib-T-R-Q-R-NMeY-NH2.C18DA-gGlu-gGlu-gGlu-gGlu-gGlu-gGlu-eLys(1,2)]
4 | 9.70 | 8.26 | 8700 | 10.00 | – | CC[C@H](C)[C@H](NC(=O)[C@H](CC(C)C)NC(=O)[C@H](Cc1c[nH]cn1)NC(=O)[C@H](CCCNC(=N)N)NC(=O)[C@@H](NC(=O)[C@H](Cc1ccccc1)NC(=O)[C@H](CCC(=O)O)NC(=O)C(C)(C)NC(=O)[C@H](CCC(N)=O)NC(=O)[C@H](C)NC(=O)[C@H](CCC(N)=O)NC(=O)[C@H](CCCCN)NC(=O)[C@H](CC(=O)O)NC(=O)[C@H](CC(C)C)NC(=O)C(C)(C)NC(=O)[C@@H](NC(=O)[C@H](CO)NC(=O)[C@H](Cc1ccc(O)cc1)NC(=O)[C@H](CC(=O)O)NC(=O)[C@H](CO)NC(=O)[C@@H](NC(=O)[C@H](Cc1ccccc1)NC(=O)[C@@H](NC(=O)CNC(=O)[C@H](CCC(=O)O)NC(=O)C(C)(C)NC(=O)[C@@H](N)Cc1ccc(O)cc1)[C@@H](C)O)[C@@H](C)O)[C@@H](C)CC)C(C)C)C(=O)N[C@@H](CC(N)=O)C(=O)N[C@@H](CCCCNC(=O)[C@@H](N)CCCCNC(=O)CC[C@H](NC(=O)CC[C@H](NC(=O)CC[C@H](NC(=O)CC[C@H](NC(=O)CC[C@H](NC(=O)CCCCCCCCCCCCCCCCC(=O)O)C(=O)O)C(=O)O)C(=O)O)C(=O)O)C(=O)O)C(=O)NC(C)(C)C(=O)N[C@H](C(=O)N[C@@H](CCCNC(=N)N)C(=O)N[C@@H](CCC(N)=O)C(=O)N[C@@H](CCCNC(=N)N)C(=O)N[C@@H](Cc1ccc(O)cc1)C(N)=O)[C@@H](C)O [Compound 113, Y-Aib-E-G-T-F-T-S-D-Y-S-I-Aib-L-D-K-Q-A-Q-Aib-E-F-V-R-H-L-I-N-K(1,3)-Aib-T-R-Q-R-Y-NH2.C18DA-gGlu-gGlu-gGlu-gGlu-gGlu-eLys(1,2)]
5 | 9.70 | – | 4100 | 9.15 | 8.40 | CC[C@H](C)[C@H](NC(=O)[C@H](CC(C)C)NC(=O)[C@H](C)NC(=O)[C@H](CCCNC(=N)N)NC(=O)[C@@H](NC(=O)[C@H](Cc1ccccc1)NC(=O)[C@H](C)NC(=O)C(C)(C)NC(=O)[C@H](CCC(N)=O)NC(=O)[C@H](C)NC(=O)[C@H](CCC(N)=O)NC(=O)[C@H](CCCCN)NC(=O)[C@H](CCC(=O)O)NC(=O)[C@H](CC(C)C)NC(=O)C(C)(C)NC(=O)[C@@H](NC(=O)[C@H](CO)NC(=O)[C@H](Cc1ccc(O)cc1)NC(=O)[C@H](CC(=O)O)NC(=O)[C@H](CO)NC(=O)[C@@H](NC(=O)[C@H](Cc1ccccc1)NC(=O)[C@@H](NC(=O)CNC(=O)[C@H](CCC(=O)O)NC(=O)C(C)(C)NC(=O)[C@@H](N)Cc1ccc(O)cc1)[C@@H](C)O)[C@@H](C)O)[C@@H](C)CC)C(C)C)C(=O)N[C@@H](CC(N)=O)C(=O)N[C@@H](CCCCNC(=O)[C@@H](N)CCCCNC(=O)CC[C@H](NC(=O)CC[C@H](NC(=O)CC[C@H](NC(=O)CC[C@H](NC(=O)CC[C@H](NC(=O)CC[C@H](NC(=O)CCCCCCCCCCCCCCCCC(=O)O)C(=O)O)C(=O)O)C(=O)O)C(=O)O)C(=O)O)C(=O)O)C(=O)NC(C)(C)C(=O)N[C@H](C(=O)N[C@@H](CCCNC(=N)N)C(=O)N[C@@H](CCC(N)=O)C(=O)N[C@@H](CCCNC(=N)N)C(=O)N[C@@H](Cc1ccc(O)cc1)C(N)=O)[C@@H](C)O [Compound 128, Y-Aib-E-G-T-F-T-S-D-Y-S-I-Aib-L-E-K-Q-A-Q-Aib-A-F-V-R-A-L-I-N-K(1,3)-Aib-T-R-Q-R-Y-NH2.C18DA-gGlu-gGlu-gGlu-gGlu-gGlu-gGlu-eLys(1,2)]
